Legend:
[1] = tested on: PAX2-2A-nGFP/POU4F3-2A-ntdTomato hESC-derived aggregates; experiment: derivation of POU4F3+ hair cells (POU4F3-ntdTomato reporter); type: cell-based, human
Protocol: To build a PAX2-2A-nGFP/POU4F3-2A-ntdTomato multiplex reporter cell line, the POU4F3-2A-ntdTomato knockin CRISPR was performed on the PAX2-2A-nGFP genetic background. The POU4F3-2A-tdTomato-nls-bGH polyA-frt-PGK-Puro-pA-frt donor plasmid was constructed by connecting the following DNA fragments via Gibson assembly: Two 1 kb homology arms flanking the POU4F3 stop codon amplified from WA25 genomic DNA, 2A-tdTomato gBlock DNA, nls-stop-bGH pA gBlock DNA, frt-PGK-Puro-frt gBlock DNA (IDT), and a linearized pUC19 backbone. The completed donor plasmid was transfected into the PAX2-2A-nGFP parental hES cell line along with a ribonucleoprotein complex composed of a synthetic sgRNA (5′-[…]-3′ (SEQ ID NO: 30)) (Synthego) targeting the POU4F3 stop codon locus, and a high fidelity Cas9 protein (HiFi Cas9 v3, IDT). The transfection was also performed with a 4D Nucleofector (Lonza) using the P3 Primary Cell 4D-Nucleofector X kit and Program CB-150. After nucleofection, cells were plated in E8fn medium containing 1× RevitaCell (Thermo Fisher) and 1 μM of Scr7 (Xcessbio). 0.5 μg/mL puromycin selection was performed for 9 days starting from 48 h post-nucleofection. The frt-flanked PGK-Puro cassette was removed via FLPo transfection (Addgene #13793). Clonal cell line isolation and genotyping procedures were the same as PAX2-2A-nGFP CRISPR. […]

[2] = tested on: hair cells in hESC-derived inner ear organoids; experiment: PRESTIN immunohistochemistry of hair cells in hESC-derived inner ear organoids; type: cell-based, human; details: for PRESTIN expression / number of Prestin positive HCs: 250 ng/ml thyroxine, about day 50 to about day 100
Protocol: PAX2-2A-nGFP/POU4F3-2A-ntdTomat hESCs (passages 22-50) were maintained and passaged in Essential 8 Flex Medium (Thermo Fisher, A2858501) supplemented with 100 μg/ml Normocin (E8fn) on recombinant human Vitronectin-N(Thermo Fisher, A14700)-coated 6-well plates. Human inner ear organoids were derived from hESCs based on the inventors' previous protocol 8.10 with major modifications. Briefly, hESCs were dissociated with StemPro Accutase (Thermo Fisher, A1110501) and distributed at 3500 cells per well onto low-adhesion 96-well U-bottom plates in 100 μL E8fn containing 20 μM Y-27632 (Stemgent, 04-0012-02) and forcibly aggregated at 120 g for 5 minutes. 100 μL of E8fn was added to each well after >4 h of incubation. Induction of non-neural epithelium occurred following 48 h of aggregation, marking differentiation day 0, as follows: aggregates were washed extensively in DMEM:F12 with HEPES buffer (DFH) (Thermo Fisher, 11320033) and transferred to new 96-well U-bottom plates in 100 μL of E6 medium (Thermo Fisher, A1516401) with Normocin (E6n) containing 4 ng mL^−1 FGF-2 (StemCell Technologies, 780003), 10 μM SB-431542 (Stemgent, 04-0010-05), and 2% growth factor reduced (GFR) Matrigel (Corning, 354230). On day 3 of differentiation, 25 μL of E6n containing 50 ng/ml FGF-2 and 200 nM LDN-193189 (Stemgent, 04-0074-02) was added to each well. Culture medium was changed on days 7 and 9 with Eon containing 3 μM CHIR 99021 (Reprocell, 04-0004-10), 200 nM LDN, and 50 ng/mL FGF-2. On day 11, aggregates were washed and transferred to a Nunc Delta surface 6-well culture dish in Organoid Maturation Medium (OMM) containing 1% GFR Matrigel and 3 μM CHIR99021. OMM consists of a 50:50 mixture of Advanced DMEM:F12 (Thermo Fisher, 12634028) and Neurobasal Medium (Thermo Fisher, 21103049) supplemented with 0.5×N2 Supplement (Thermo Fisher, 17502048), 0.5×B27 minus Vitamin A (Thermo Fisher, 12587010), 1× GlutaMAX (Thermo Fisher, 35050061), 0.1 mM β-Mercaptoethanol (Thermo Fisher, 21985023), and Normocin. Control cultures were maintained in OMM+3 μM CHIR99021 until day 18 with media changes on days 13 and 15, then OMM for the remainder of the culture. Treatment cultures were supplemented with 1 μM Purmorphamine (Stemgent, 04-0009) from days 13-22, and IWP-2 (Tocris, 3533) from days 18-22, with media changes on days 15,18, and 20, then maintained in OMM for the remainder of the culture.
Aggregates were fixed with 4% paraformaldehyde for 30 min at room temperature or at 4° C. overnight. […]
Treated and control samples were processed for immunostaining simultaneously using identical reagents and protocols for each comparison. […] Raw images were analysed using Nikon GI3 suite or exported in TIFF format and analysed using ImageJ. […]

With `Cl.Cl.O=S(=O)(NCCNCC=Cc1ccc(Br)cc1)c1cccc2cnccc12` [H89] the “efficacy in deriving POU4F3+ hair cells” value ([1]; 10 μM H89 alone or combined with PUR / PUR+IWP2, D102) was “none of these treatments were efficacious”.

`N[C@@H](Cc1cc(I)c(Oc2cc(I)c(O)c(I)c2)c(I)c1)C(=O)O` [T4, thyroxine] was tested, and the “PRESTIN expression / number of Prestin positive HCs” value ([2]; listed as Thyroxine) was “increases”, the “PRESTIN expression / number of Prestin positive HCs” value ([2]; listed as thyroxine) was “increased PRESTIN expression” and the “SOX2 expression in HCs” value ([2]; T4 treated cochlear organoid cultures) was “downregulated”. The “PRESTIN+HCs” value ([2]; cochlear organoid cultures, 250 ng/ml T4 from culture day 50 until D100, read at D100) was ~80%.

B1: BMP-4: recombinant bone morphogenic protein applied on day 0 (protein, UniProt P12644 293-408, looked up)
Bone morphogenetic protein 4: SPKHHSQRARKKNKNCRRHSLYVDFSDVGWNDWIVAPPGYQAFYCHGDCPFPLADHLNSTNHAIVQTLVNSVNSSIPKACCVPTELSAISMLYLDEYDKVVLKNYQEMVVEGCGCR
In the case of B1, the “proportion of POU4F3 cells” value ([1]; BMP-4 applied on day 0, read at D55) is reported as “increases”.

Source: patent publication US20250034523A1, “METHODS OF GENERATING HUMAN COCHLEAR HAIR CELLS” (THE TRUSTEES OF INDIANA UNIVERSITY, priority 2021, published 2025)
